Laboratory results published in patent US20150010651A1, “Compositions and methods for the treatment of wounds” (priority 2009, published 2015).
“And” between values parts separate entries of the source, which are not always exact repeats. Identical values can stand only once. “Also recorded” adds a separate entry of the source.

Key:
diabetic ulcers = conditions: patients with diabetic ulcers; control group 45 days; cited from earlier work
[1] = tested on: diabetic ulcer (non-healing wound); experiment: Case studies: powdered wound composition applied topically to infected non-healing wounds / diabetic ulcers of patients; assay type: in vivo, human
Source text: Thereafter, the wound compositions may be applied to the wound at least once a week until such time as the wound is satisfactorily healed. In one embodiment, a wound composition is applied once a week (after the initial daily application) for a period of at least seven weeks. It is understood that prior to each application, the wound may be rinsed with a sterile solution, such as saline, and allowed to dry. Thereafter, a wound composition may be applied and the wound wrapped in a suitable dressing.
A treatment plan was established for the patient. Under the treatment plan, the patient received: 1) Insulin 70/30 (Novoline) 50 IU morning, 25 IU night; and 2) intravenueously, Co-Amoxiclav 1.2 g+Gentamicin 80 mg+Metronidazole 400 mg in 100 ml N Saline/30 min (every 8 hours). After the injection of the intravenous antibiotics, the patient began taking oral antibiotics: 1) Co-Amoxiclav 625 mg (2 tablets) (twice daily); 2) Ciprofloxacin 500 mg once daily for 2 weeks; and 3) Ibuprofen 600 mg for 5 days (every 8 hours). Thereafter, the wound was cleaned with saline solution. A wound composition comprising a mixture of 300 mg powdered phenyloin (Dilantin®) and 500 mg of powdered Vitamin C was administered over the wound and the wound was dressed. The patient was advised to come back on a daily basis for dressing of the wound and reapplication of the wound composition.
(§1) The patient returned for 9 consecutive visits over the next nine days. Thereafter, the patient began weekly visits. With each visit, the wound was cleaned with saline solution and the powdered wound composition was applied topically to the wound, and redressed.
A treatment plan was established for the patient. Under the treatment plan, the patient received: 1) Insulin 70/30 (Novoline) 40 IU morning, 20IU night; and 2) intravenueously, Co-Amoxiclav 1.2 g+Gentamicin 80 mg+Metronidazole 400 mg in 100 ml N Saline/30 min. every 8 hours. After the injection of the intravenous antibiotics, the patient began taking oral antibiotics: 1) Co-Amoxiclav 625 mg (2 tablets) twice daily 2) Ciprofloxacin 500 mg once daily for 2 weeks; and 3) Ibuprofen 600 mg every 8 hours.; and (4) Co-diovan tablets (valsartan and hydrochlorothiazide) 80 mg/12.5 mg daily. Thereafter, the wound was cleaned with saline solution. A wound composition comprising 300 mg powdered phenyloin (Dilantin®) was administered over the wound and the wound was dressed. The patient was advised to come back on a daily basis for dressing of the wound and reapplication of the wound composition.
as §1, with “redressed. […] No further treatment was prescribed to the patient.” for “redressed.”

[2] = one patient per Example, topical, weekly application, week 8

O=C1NC(=O)C(c2ccccc2)(c2ccccc2)N1 [phenyloin, 5.5-diphenyl-2,4-imidazolidinedione]
mean healing time (diabetic ulcers): 21 days | portion of the wound healed ([1]; Example 16 patient, topical, weekly application, week 13): approximately 60% | appearance of the wound ([1]; Example 16 patient, topical, weekly application, weeks 3-5): continued to appear generally healthy | recurrence of the wound after healing ([1]; one patient per Example, Dilantin alone): the wound returned in substantially the same location; also recorded: the wound returned in approximately the same location | time the wound took to heal completely ([1]; one patient per Example, Dilantin alone, topical): approximately 20 weeks and ~27 weeks and ~22 weeks and approximately 25 weeks | amputation outcome ([1]; one patient per Example, after treatment course): need to amputate the right leg below the knee; also recorded: need to amputate the left leg below the knee | new skin formation (wound healing by secondary intention) ([1]; one patient per Example, topical, daily visits for 9 days then weekly, week 1): signs of new skin formation | granulation tissue formed [1, 2]: approximately 20% | portion of the wound healed [1, 2]: approximately 35%; also recorded: approximately 25% | portion of the wound healed ([1]; one patient per Example, topical, weekly application, week 9): approximately 40% | portion of the wound healed ([1]; one patient per Example, topical, weekly application, week 10): approximately 60% | appearance of the wound ([1]; one patient per Example, topical, weekly application, weeks 2-4): continued to appear generally healthy | healing of the wound as noted ([1]; one patient per Example, topical, weekly application, weeks 5-7): beginning to heal very well, but was very slow healing
